Laboratory results taken from patent US10442931B2, “Dye compound, composition comprising dye compound, and display device using dye compound” (Samsung Display Co. Ltd., priority 2017, dated 2019).

Key:
[1] = Maximum absorption wavelength band and absorbance, Shimadzu UV-1800 UV-vis spectrophotometer; assay type: physicochemical
Method: (§1) The maximum absorption wavelength bands and absorbance were measured using Shimadzu UV-1800 UV-vis. Spectrophotometer. Whether having lipid solubility was determined to be lipid soluble when the solubility of the compounds in MEK, PGMEA, cyclo-hexanone, or toluene was 1 wt % or more.

[2] = Whether having lipid solubility (solubility in MEK, PGMEA, cyclo-hexanone, or toluene); assay type: physicochemical
Method: as §1

SMILES	Maximum absorption wavelength band [1]	Whether having lipid solubility [2]
CCCCOc1ccc(/N=N/c2ccc(N3CCN(c4ccc(/N=N/c5ccc(OCCCC)cc5)cc4)CC3)cc2)cc1 [Compound A124]	500-600 nm	∘ (determined to be lipid soluble when the solubility of the compounds in MEK, PGMEA, cyclo-hexanone, or toluene was 1 wt % or more)
CCN(CC)c1ccc(/N=N/c2ccc(N3CCN(c4ccc(/N=N/c5ccc(N(CC)CC)cc5O)cc4)CC3)cc2)c(O)c1 [Compound A132]	500-600 nm	∘ (determined to be lipid soluble when the solubility of the compounds in MEK, PGMEA, cyclo-hexanone, or toluene was 1 wt % or more)
CCCCN(C)c1ccc(/N=N/c2ccc(N3CCN(c4ccc(/N=N/c5ccc(N(C)CCCC)cc5)cc4)CC3)cc2)cc1 [Compound A133]	500-600 nm	∘ (determined to be lipid soluble when the solubility of the compounds in MEK, PGMEA, cyclo-hexanone, or toluene was 1 wt % or more)
C=C(C)C(=O)N(CC)c1ccc(/N=N/c2ccc(N3CCN(c4ccc(/N=N/c5ccc(N(CC)C(=O)C(=C)C)cc5C)cc4)CC3)cc2)c(C)c1 [Compound A138]	500-600 nm	∘ (determined to be lipid soluble when the solubility of the compounds in MEK, PGMEA, cyclo-hexanone, or toluene was 1 wt % or more)
CCCCN(C)c1ccc(/N=N/c2ncc(-c3cnc(/N=N/c4ccc(N(C)CCCC)cc4)s3)s2)cc1 [Compound B117]	≥ 600- nm	∘ (determined to be lipid soluble when the solubility of the compounds in MEK, PGMEA, cyclo-hexanone, or toluene was 1 wt % or more)
CCN(CC)c1ccc(/N=N/c2ncc(-c3cnc(/N=N/c4ccc(N(CC)CC)cc4O)s3)s2)c(O)c1 [Compound B123]	≥ 600- nm	∘ (determined to be lipid soluble when the solubility of the compounds in MEK, PGMEA, cyclo-hexanone, or toluene was 1 wt % or more)

Now from value to compound, other results behind:

Maximum absorption wavelength band [1]	SMILES	Whether having lipid solubility [2]
≥ 600- nm	Cc1c(O)c(/N=N/c2ncc(-c3cnc(/N=N/c4cc5ccc(N)cc5c(C)c4O)s3)s2)cc2ccc(N)cc12 [Compound B127]	∘ (determined to be lipid soluble when the solubility of the compounds in MEK, PGMEA, cyclo-hexanone, or toluene was 1 wt % or more)
400-500 nm	CCCCOc1ccc(/N=N/c2ccc(/C=C/c3ccc(/N=N/c4ccc(OCCCC)cc4)cc3)cc2)cc1 [Compound C103]	∘ (determined to be lipid soluble when the solubility of the compounds in MEK, PGMEA, cyclo-hexanone, or toluene was 1 wt % or more)
500-600 nm	Nc1ccc(/N=N/c2ccc(-c3ccc(-c4ccc(/N=N/c5ccc(N)cc5)cc4)cc3)cc2)cc1 [Compound D110]	∘ (determined to be lipid soluble when the solubility of the compounds in MEK, PGMEA, cyclo-hexanone, or toluene was 1 wt % or more)
